# Tested on: 485368-065-R3-J5-PDC spheroids with HUVEC/MSC, viability
# Test: Anticancer human tumor 485368-065-R3-J5-PDC patient-derived pancreatic carcinoma cell line growth inhibition [RAS]
# Conditions: for IC50: curve of first compound; for viability, T/C: stronger effect = lower value
# Procedure, shortened: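 Tumour cells grown as complex spheroids with HUVEC endothelial cells and mesenchymal stem cells, treated with RAS pathway inhibitor combinations. Each agent spans half-log steps from near clinical Cmax, or 10 microM where Cmax is unknown.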
# [1] = second compound 0.000949 µM, first compound 0.0316 µM
# [2] = second compound 0.000949 µM, first compound 0.1 µM
# [3] = second compound 0.000949 µM, first compound 0.316 µM
# [4] = second compound 0.000949 µM, first compound 1 µM
# [5] = second compound 0.000949 µM, first compound 3.16 µM
# [6] = second compound 0.000949 µM, first compound 10 µM
# [7] = second compound 0.003 µM, first compound 0.0316 µM
# [8] = second compound 0.003 µM, first compound 0.1 µM
# [9] = second compound 0.003 µM, first compound 0.316 µM
# [10] = second compound 0.003 µM, first compound 1 µM
# [11] = second compound 0.003 µM, first compound 3.16 µM
# [12] = second compound 0.003 µM, first compound 10 µM
# [13] = second compound 0.00949 µM, first compound 0.0316 µM
# [14] = second compound 0.00949 µM, first compound 0.1 µM
# [15] = second compound 0.00949 µM, first compound 0.316 µM
# [16] = second compound 0.00949 µM, first compound 1 µM
# [17] = second compound 0.00949 µM, first compound 3.16 µM
# [18] = second compound 0.00949 µM, first compound 10 µM
# [19] = second compound 0.03 µM, first compound 0.0316 µM
# [20] = second compound 0.03 µM, first compound 0.1 µM
# [21] = second compound 0.03 µM, first compound 0.316 µM
# [22] = second compound 0.03 µM, first compound 1 µM
# [23] = second compound 0.03 µM, first compound 3.16 µM
# [24] = second compound 0.03 µM, first compound 10 µM
# [25] = second compound 0.0949 µM, first compound 0.0316 µM
# [26] = second compound 0.0949 µM, first compound 0.1 µM
# [27] = second compound 0.0949 µM, first compound 0.316 µM
# [28] = second compound 0.0949 µM, first compound 1 µM
# [29] = second compound 0.0949 µM, first compound 3.16 µM
# [30] = second compound 0.0949 µM, first compound 10 µM
# [31] = second compound 0.3 µM, first compound 0.0316 µM
# [32] = second compound 0.3 µM, first compound 0.1 µM
# [33] = second compound 0.3 µM, first compound 0.316 µM
# [34] = second compound 0.3 µM, first compound 1 µM
# [35] = second compound 0.3 µM, first compound 3.16 µM
# [36] = second compound 0.3 µM, first compound 10 µM
# 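Also: spheroids exposed to agents for seven days before readout.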
smiles,measurement,setting,value
CC1(O)CCCC1n1c(=O)c(C(F)F)cc2cnc(NC3CCN(S(C)(=O)=O)CC3)nc21 (stereo unspecified) + CCn1c(-c2cccnc2C(C)OC)c2c3cc(ccc31)N1CCOC(CC(NC(=O)C(C(C)C)N(C)C(=O)C3(F)CCN(C(=O)C#CC(C)(C)N(C)C)CC3)C(=O)N3CCCC(N3)C(=O)OCC(C)(C)C2)C1,IC50,second compound 0.000949 µM,279 nM
same,IC50,second compound 0.003 µM,722 nM
same,IC50,second compound 0.00949 µM,580 nM
same,IC50,second compound 0.03 µM,254 nM
same,IC50,second compound 0.0949 µM,636 nM
same,IC50,second compound 0.3 µM,656 nM
same,"viability, T/C",[1],106%
same,"viability, T/C",[2],79.2%
same,"viability, T/C",[3],44.9%
same,"viability, T/C",[4],40.2%
same,"viability, T/C",[5],46%
same,"viability, T/C",[6],24.5%
same,"viability, T/C",[7],91.4%
same,"viability, T/C",[8],82.9%
same,"viability, T/C",[9],50.4%
same,"viability, T/C",[10],41.9%
same,"viability, T/C",[11],48.5%
same,"viability, T/C",[12],21.3%
same,"viability, T/C",[13],92.8%
same,"viability, T/C",[14],77.1%
same,"viability, T/C",[15],42.9%
same,"viability, T/C",[16],48.2%
same,"viability, T/C",[17],44.8%
same,"viability, T/C",[18],18%
same,"viability, T/C",[19],97.6%
same,"viability, T/C",[20],88.6%
same,"viability, T/C",[21],40.8%
same,"viability, T/C",[22],41.2%
same,"viability, T/C",[23],49.2%
same,"viability, T/C",[24],17.4%
same,"viability, T/C",[25],96%
same,"viability, T/C",[26],80%
same,"viability, T/C",[27],48.5%
same,"viability, T/C",[28],41.2%
same,"viability, T/C",[29],49.8%
same,"viability, T/C",[30],17.4%
same,"viability, T/C",[31],105%
same,"viability, T/C",[32],86.1%
same,"viability, T/C",[33],47%
same,"viability, T/C",[34],44.8%
same,"viability, T/C",[35],48.5%
same,"viability, T/C",[36],13.1%
CCN1CCN(Cc2ccc(Nc3ncc(F)c(-c4cc(F)c5nc(C)n(C(C)C)c5c4)n3)nc2)CC1 + CCn1c(-c2cccnc2C(C)OC)c2c3cc(ccc31)N1CCOC(CC(NC(=O)C(C(C)C)N(C)C(=O)C3(F)CCN(C(=O)C#CC(C)(C)N(C)C)CC3)C(=O)N3CCCC(N3)C(=O)OCC(C)(C)C2)C1,IC50,second compound 0.000949 µM,> 1000 nM
same,IC50,second compound 0.003 µM,639 nM
same,IC50,second compound 0.00949 µM,941 nM
same,IC50,second compound 0.03 µM,693 nM
same,IC50,second compound 0.0949 µM,888 nM
same,IC50,second compound 0.3 µM,> 1000 nM
same,"viability, T/C","second compound 0.000949 µM, first compound 0.00316 µM",103%
same,"viability, T/C","second compound 0.000949 µM, first compound 0.01 µM",88.8%
same,"viability, T/C",[1],103%
same,"viability, T/C",[2],77.9%
same,"viability, T/C",[3],63.5%
same,"viability, T/C",[4],51.5%
same,"viability, T/C","second compound 0.003 µM, first compound 0.00316 µM",98.4%
same,"viability, T/C","second compound 0.003 µM, first compound 0.01 µM",91.5%
same,"viability, T/C",[7],96.4%
same,"viability, T/C",[8],77.3%
same,"viability, T/C",[9],58.2%
same,"viability, T/C",[10],45%
same,"viability, T/C","second compound 0.00949 µM, first compound 0.00316 µM",96.8%
same,"viability, T/C","second compound 0.00949 µM, first compound 0.01 µM",100%
same,"viability, T/C",[13],91.3%
same,"viability, T/C",[14],84.7%
same,"viability, T/C",[15],60.9%
same,"viability, T/C",[16],49.6%
same,"viability, T/C","second compound 0.03 µM, first compound 0.00316 µM",96.8%
same,"viability, T/C","second compound 0.03 µM, first compound 0.01 µM",100%
same,"viability, T/C",[19],95.4%
same,"viability, T/C",[20],82.6%
same,"viability, T/C",[21],70.5%
same,"viability, T/C",[22],40.7%
same,"viability, T/C","second compound 0.0949 µM, first compound 0.00316 µM",96.8%
same,"viability, T/C","second compound 0.0949 µM, first compound 0.01 µM",95.1%
same,"viability, T/C",[25],96.1%
same,"viability, T/C",[26],83.4%
same,"viability, T/C",[27],66.3%
same,"viability, T/C",[28],48%
same,"viability, T/C","second compound 0.3 µM, first compound 0.00316 µM",96.8%
same,"viability, T/C","second compound 0.3 µM, first compound 0.01 µM",104%
same,"viability, T/C",[31],89.3%
same,"viability, T/C",[32],88.8%
same,"viability, T/C",[33],63.7%
same,"viability, T/C",[34],55.8%
C[C@@H](NC(=O)c1ncnc(N)c1Cl)c1ncc(C(=O)Nc2cc(C(F)(F)F)c(Cl)cn2)s1 + CCn1c(-c2cccnc2C(C)OC)c2c3cc(ccc31)N1CCOC(CC(NC(=O)C(C(C)C)N(C)C(=O)C3(F)CCN(C(=O)C#CC(C)(C)N(C)C)CC3)C(=O)N3CCCC(N3)C(=O)OCC(C)(C)C2)C1,IC50,second compound 0.000949 µM,> 10000 nM
same,IC50,second compound 0.003 µM,> 10000 nM
same,IC50,second compound 0.00949 µM,> 10000 nM
same,IC50,second compound 0.03 µM,> 10000 nM
same,IC50,second compound 0.0949 µM,> 10000 nM
same,IC50,second compound 0.3 µM,> 10000 nM
same,"viability, T/C",[1],107%
same,"viability, T/C",[2],102%
same,"viability, T/C",[3],106%
same,"viability, T/C",[4],93.6%
same,"viability, T/C",[5],92.6%
same,"viability, T/C",[6],86.4%
same,"viability, T/C",[7],102%
same,"viability, T/C",[8],107%
same,"viability, T/C",[9],102%
same,"viability, T/C",[10],94.6%
same,"viability, T/C",[11],106%
same,"viability, T/C",[12],80.3%
same,"viability, T/C",[13],102%
same,"viability, T/C",[14],110%
same,"viability, T/C",[15],103%
same,"viability, T/C",[16],105%
same,"viability, T/C",[17],96.5%
same,"viability, T/C",[18],89%
same,"viability, T/C",[19],102%
same,"viability, T/C",[20],120%
same,"viability, T/C",[21],106%
same,"viability, T/C",[22],105%
same,"viability, T/C",[23],107%
same,"viability, T/C",[24],94.6%
same,"viability, T/C",[25],102%
same,"viability, T/C",[26],111%
same,"viability, T/C",[27],105%
same,"viability, T/C",[28],96.5%
same,"viability, T/C",[29],104%
same,"viability, T/C",[30],76.1%
same,"viability, T/C",[31],97.5%
same,"viability, T/C",[32],118%
same,"viability, T/C",[33],111%
same,"viability, T/C",[34],108%
same,"viability, T/C",[35],106%
same,"viability, T/C",[36],79.2%
